Columns and labels:
Assay type in all cases: in vivo
Plasmodium chabaudi [1] = assay: Progression, resolution and survival of lethal P. chabaudi infection (10^6 pRBC i.v.) in A/J mice; conditions: Cys alone 60 mg/kg, days 0-3
Procedure: (§1) A/J and C57BL/6 (B6) mice were purchased from the Jackson Laboratories (Bar Harbor, Me.) and were housed at McGill University according to the guidelines of the Canadian Council on Animal Care. An LDH virus-free isolate of P. chabaudi AS was maintained by weekly passage in A/J mice. Mice were infected intravenously into the tail vein (i.v.) with 10^6 or 10^7 pRBC suspended in pyrogen-free saline. Following infection, the percentage of pRBC was determined daily on thin blood smears stained with Dif-Quik™ (Dade Behring, Newark, Del.), as described (Fortin A, et al. (2001) Proc Natl Acad Sci USA 98: 10793-10798).
(§2) Cysteamine hydrochloride (Sigma, Burlington ON) was prepared in PBS. Chloroquine hydrochloride, artesunate and dihydroartemisinin were provided by Dafra Pharmaceuticals; chloroquine was prepared in PBS, artesunate and DHA were prepared in 5% sodium bicarbonate and diluted in water to appropriate concentrations. All solutions were prepared fresh daily, filter sterilized and injections were performed intra-peritoneally (i.p) or subcutaneously (s.c.) for 4 days or according to treatment regimen. Mice were weighed prior to treatment to determine appropriate doses and injection volumes ranged from 100-400 μL per mouse. In the case of animals treated with two drugs, artemisinin derivatives were administered first (due to the short half life of cysteamine), followed by cysteamine 5-10 minutes later on alternate sides. Untreated control animals were injected with PBS alone.
It was investigated if low dose Cys could potentiate standard doses of ART that show therapeutic activity in vivo and concurrently determined possible long-term effects on patent parasitemia, resolution of infection and survival in a lethal infection model. In this protocol, mice were infected with 10^6 pRBC P. chabaudi (i.v.) and treated with Cys (60 mg/kg) and/or ART (0.5, 1, 2, 5 and 10 mg/kg) for 4 days (days 0-3), while blood parasitemia and survival were followed for 22 days. Control animals treated with either PBS or Cys alone (60 mg/kg) developed high parasite burdens, which peaked at day 6, and all mice succumbed to the infection by day 7 (FIGS. 5A and 5C). […] Likewise, although all mice treated with 0.5 mg/kg ART succumbed to the infection early (day 8), mice additionally receiving Cys survived until day 9; moreover, addition of Cys to 1.0 mg/kg ART completely rescued animals from lethality of infection, with 100% survival in this group (FIGS. 5B, 5C).

Plasmodium chabaudi [2] = assay: 4-day test, P. chabaudi (10^7 pRBC i.v.) in pantetheinase-deficient A/J mice, blood parasitemia days 4 and 5; conditions: A/J mice
Procedure: as §1, §2
(§3) Groups with normally distributed data points were compared using parametric unpaired t-tests, while groups with non-Gaussian distributions were compared using non-parametric Mann-Whitney tests. Survival differences were analyzed using the Log-Rank test. […] Standard error of percent inhibition was calculated from individual mice compared to the mean parasitemia level of the control group.
(§4) The effect of Cys on the potency and efficacy of the anti-malarial artemisinin derivatives was tested. […] Synergy (Tallarida R J (2001) J Pharmacol Exp Ther 298: 865-872) is defined as a total anti-malarial activity (reduction in blood parasitemia compared to untreated controls in a standard 4-day test) of the two compounds administered together being greater than the sum of the independent activities of the two compounds given alone. We tested combinations of Cys and either artesunate (ART) or dihydroartemisinin (DHA), the bioactive form of artemisinin. Pantetheinase-deficient mice were infected with P. chabaudi (10^7 pRBC, i.v.) and treated with Cys (170 mg/kg) and/or sub-optimal doses of ART (0.2 or 0.5 mg/kg) (FIG. 3A) or DHA (0.15 or 0.3 mg/kg) (FIG. 3B) from day 0-3 and parasitemia was monitored on days 4 and 5. […] Potentiation of the anti-malarial activity of ART (0.5 mg/kg) by Cys was also clearly evident in these C57BL/6 mice at both days 4 and 5 post-infection, with combined treatment causing a 65-71% reduction in parasitemia compared to PBS controls, greater than either compound tested alone (13-29%) (TABLE 1).
It was subsequently examined whether Cys potentiation of ART was dose dependent. Initially, Cys doses of 60, 100, 140 and 180 mg/kg were tested with a sub-optimal ART dose of 0.2 mg/kg. The drugs were administered from day 0-3 post infection, parasitemia was counted at day 4 and day 5 and the percent inhibition was calculated compared to PBS-treated controls (FIG. 4A). At 0.2 mg/kg, ART alone inhibits parasitemia by ˜20% (day 4) and 40% (day 5) while inhibition by Cys alone was partially dose dependent (varying between 10% and 25%). […] It was also assessed whether Cys could potentiate low doses of artesunate which, given alone, have no significant effect on parasitemia. In this experiment, Cys (170 mg/kg) was administered in combination, or not, with increasing doses of ART (0.05, 0.1, 0.2, 0.4 mg/kg) in the same 4-day experimental protocol.

Plasmodium chabaudi [3] = assay: 4-day test, P. chabaudi (10^7 pRBC i.v.) in pantetheinase-sufficient C57BL/6 mice, blood parasitemia days 4 and 5; conditions: cysteamine 170 mg/kg i.p. alone, days 0-3
Procedure: as §1, §2, §3, §4

[4] = cysteamine 170 mg/kg i.p. alone, days 0-3

Question: Which “day at which parasite burdens peaked” value (Plasmodium chabaudi [1]) does the source give for `NCCS` [Cysteamine] here?
Answer: 6 days

Question: And the “day by which all mice succumbed to the infection” value (Plasmodium chabaudi [1])?
Answer: ≤ 7 days

Question: What about the “Inhibition of parasitemia Day 4” value (Plasmodium chabaudi [2]; [4]) of the same compound?
Answer: 28 % PBS control

Question: And the “Inhibition of parasitemia Day 5” value (Plasmodium chabaudi [2]; [4])?
Answer: 23 % PBS control

Question: What about the “Cys doses as low as which show potentiation of the ART effect” value (Plasmodium chabaudi [2]; lower Cys dose range (20, 40 and 60 mg/kg) with ART (FIG. 4B)) of the same compound?
Answer: 20 to 40 mg/kg

Question: And the “Inhibition of parasitemia Day 4” value (Plasmodium chabaudi [3])?
Answer: 13 % PBS control

Question: What about the “Inhibition of parasitemia Day 5” value (Plasmodium chabaudi [3]) of the same compound?
Answer: 25 % PBS control

Reference: US9278086B2, “Combination therapy and uses thereof for treatment and prevention of parasitic infection and disease” (The Royal Institution for the Advancement of …, priority 2010, dated 2016)
